Measurements taken from article PMC3437627 (Bioorganic & medicinal chemistry letters, 2008).

Tests used:
α7* nAChRs [1] = target: T1, α7* nAChRs (Rattus norvegicus, UniProt Q05941); experiment: [3H]methyllycaconitine; type: binding; settings: 100 nM
[2] = tested on: nicotine self-administration; settings: rats; cited from earlier work
α7* nAChRs [3] = target: T1, α7* nAChRs; settings: rat brain membranes; cited from earlier work
α4β2* nAChRs = α4β2* nAChRs (Rattus norvegicus, UniProt P09483+P12390); settings: rat brain membranes; cited from earlier work
[4] = in vivo; cited from earlier work

T1 sequence (Q05941 23-502): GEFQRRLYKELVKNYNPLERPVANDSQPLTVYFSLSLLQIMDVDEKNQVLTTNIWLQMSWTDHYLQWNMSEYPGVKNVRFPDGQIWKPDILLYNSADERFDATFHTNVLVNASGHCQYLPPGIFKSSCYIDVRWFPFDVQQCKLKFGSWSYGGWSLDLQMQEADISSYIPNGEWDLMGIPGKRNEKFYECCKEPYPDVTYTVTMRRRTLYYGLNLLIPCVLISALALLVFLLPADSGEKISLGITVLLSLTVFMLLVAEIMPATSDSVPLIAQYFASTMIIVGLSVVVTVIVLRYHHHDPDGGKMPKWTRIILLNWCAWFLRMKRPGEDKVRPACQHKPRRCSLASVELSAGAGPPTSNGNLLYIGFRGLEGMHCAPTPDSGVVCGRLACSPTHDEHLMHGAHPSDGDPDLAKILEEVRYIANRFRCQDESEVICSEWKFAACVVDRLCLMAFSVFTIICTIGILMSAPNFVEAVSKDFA
Sequence of α4β2* nAChRs (P09483 31-630): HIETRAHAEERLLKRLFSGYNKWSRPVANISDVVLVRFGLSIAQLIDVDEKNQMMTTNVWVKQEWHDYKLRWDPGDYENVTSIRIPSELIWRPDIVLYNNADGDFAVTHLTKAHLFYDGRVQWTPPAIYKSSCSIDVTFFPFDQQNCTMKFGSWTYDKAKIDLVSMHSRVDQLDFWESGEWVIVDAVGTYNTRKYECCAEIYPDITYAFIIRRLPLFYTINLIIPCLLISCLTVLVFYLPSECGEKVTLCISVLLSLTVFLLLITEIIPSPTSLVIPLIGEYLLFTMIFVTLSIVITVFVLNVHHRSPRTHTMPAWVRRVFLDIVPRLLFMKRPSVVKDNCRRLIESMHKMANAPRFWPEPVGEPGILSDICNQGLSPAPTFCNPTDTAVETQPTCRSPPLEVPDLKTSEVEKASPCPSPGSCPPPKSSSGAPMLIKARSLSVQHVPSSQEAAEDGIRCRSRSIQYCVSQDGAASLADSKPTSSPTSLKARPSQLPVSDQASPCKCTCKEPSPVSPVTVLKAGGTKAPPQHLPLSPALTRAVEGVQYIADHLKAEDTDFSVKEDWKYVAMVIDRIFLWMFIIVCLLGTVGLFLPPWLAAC
Sequence of α4β2* nAChRs (P12390 25-500): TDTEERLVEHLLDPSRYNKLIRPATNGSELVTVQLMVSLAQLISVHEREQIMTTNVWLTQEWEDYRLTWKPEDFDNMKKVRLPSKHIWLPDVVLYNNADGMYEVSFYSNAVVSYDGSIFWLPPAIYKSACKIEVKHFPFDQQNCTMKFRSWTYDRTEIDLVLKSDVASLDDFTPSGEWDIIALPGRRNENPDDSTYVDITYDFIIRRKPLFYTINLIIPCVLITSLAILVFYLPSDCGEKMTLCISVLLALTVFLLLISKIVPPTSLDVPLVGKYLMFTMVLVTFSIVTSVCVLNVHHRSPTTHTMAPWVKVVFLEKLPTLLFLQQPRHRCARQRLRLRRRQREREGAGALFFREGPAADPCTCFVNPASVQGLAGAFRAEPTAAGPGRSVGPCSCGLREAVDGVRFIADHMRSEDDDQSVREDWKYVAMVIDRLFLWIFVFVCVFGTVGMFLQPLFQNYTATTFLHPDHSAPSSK

Compound	inhibition in the MLA assay (α7* nAChRs [1])	effect on nicotine self-administration [2]	affinity for α7* nAChR binding site (α7* nAChRs [3])	affinity for α4β2* nAChR binding site (α4β2* nAChRs)	brain bioavailability [4]
C(#Cc1cc(C#CCCC[n+]2cccc(-c3ccccc3)c2)c(C#CCCC[n+]2cccc(-c3ccccc3)c2)cc1C#CCCC[n+]1cccc(-c2ccccc2)c1)CCC[n+]1cccc(-c2ccccc2)c1.[Br-].[Br-].[Br-].[Br-] [Compound 8i]	significant inhibition				
C(#Cc1cc(C#CCCC[n+]2cccc(Cc3ccccc3)c2)c(C#CCCC[n+]2cccc(Cc3ccccc3)c2)cc1C#CCCC[n+]1cccc(Cc2ccccc2)c1)CCC[n+]1cccc(Cc2ccccc2)c1.[Br-].[Br-].[Br-].[Br-] [Compound 8f]	significant inhibition				
Cc1ccc[n+](CCCCCCCCCCCC[n+]2cccc(C)c2)c1.[Br-].[Br-] [Compound 2, N,N’-dodecane-1,12-diyl-bis-3-picolinium dibromide]		decrease nicotine self-administration	no affinity	no affinity	brain bio-available
